According to patent publication US11448563B2, “Force measurement method, force measurement device, force measurement system, force measurement program, and recording medium” (Tohoku University, priority 2017, dated 2022):

System: motor proteins
Assay: Frequency distribution of the fluctuation value χ of cargo transport, measured with the force measurement device after adding Ciliobrevin to cells
Format: cell-based
Conditions: melanocytes; for number of clusters into which the frequency distribution of the fluctuation value χ is classified: four clusters without Ciliobrevin
Procedure: The dish after stain was placed on a heating plate (CU-201, Live Cell Instrument), and the stained melanin vesicles in melanocytes were observed under a dark-field microscope (IX71, Olympus) while the temperature was maintained at 37° C. A video was captured using an EMCCD camera (LucaS (Andor)) with a 100× objective lens (UPlanFL 100x/1.3, Plympus) at 98 frames per second. Time course data of the position of the center of gravity of melanin vesicles was calculated from the video using ImageJ (Rasband, 1997).
FIG. 15A, FIG. 15B and FIG. 15C are diagrams showing specific results showing that the fact that the frequency distribution of the fluctuation value χ changes according to addition of Ciliobrevin which is a reagent that inhibits a function of motor proteins into melanocytes is clear from measurement of χ using the force measurement device 1 of the embodiment.

Ciliobrevin was tested, and the “change in the number of clusters of the fluctuation value χ with the amount of Ciliobrevin added” value (comparison of 0, 20 and 40 μM (FIG. 15A-15C)) was “number of clusters decreases as the amount of Ciliobrevin added increases”, the “number of clusters into which the frequency distribution of the fluctuation value χ is classified” value (concentration of Ciliobrevin in the cell culture medium 20 μM (FIG. 15B)) was “two clusters” and the “number of clusters into which the frequency distribution of the fluctuation value χ is classified” value (concentration of Ciliobrevin in the cell culture medium 40 μM (FIG. 15C)) was “one cluster”.
